pIC50: −log10 of the molar value. “Also recorded” adds a separate entry of the source.
Experiments:
[1] = tested on: pain intensity; details: study completers, double-blind placebo-controlled; cited from earlier work
[2] = target: T1, CYP2D6 (Homo sapiens, UniProt P10635); experiment: CYP2D6 inhibition screening, recombinant enzyme, MAMC substrate; type: in vitro ADME
T1 construct: purchased BD Bioscience
Method: Protocol. […] The source of the enzyme was microsomes containing human recombinant CYP2D6 obtained from BD Bioscience. Conversion of MAMC to 7-hydroxy-4-(aminomethyl)coumarin was measured using a PerkinElmer Fusion with a 390 nm excitation filter and a 460 nm emission filter.

[3] = target: T1, CYP2D6; experiment: CYP2D6 inhibition (dextromethorphan O-demethylation) in human hepatic microsomes; type: in vitro ADME; details: pooled male human hepatic microsomes
Method: The 200 μL incubations were conducted in duplicate in 0.1 M potassium phosphate buffer (pH 7.4) with 0.02 mg of microsomal protein, 3 mM MgCl2, 1 mM EDTA and 7.5 μM of the probe substrate dextromethorphan in a 96-well polypropylene plate maintained at 37° C. After a 3-minute pre-incubation, the reaction was initiated with the addition of 2 mM NADPH. Upon completion of the 10-minute incubation period, aliquots of 100 μL were removed and added to a new plate containing 100 μL of internal standard in acidified acetonitrile to stop the reaction. The quenched samples were vortexed and the precipitated protein was removed by centrifugation. Supernatant aliquots of 100 μL were transferred to LC vials and 5 μL were injected onto the HPLC system for LC/MS/MS analysis of the metabolite dextrorphan. Standards and quality control samples were similarly prepared using authentic dextrorphan standards.
Dexthorphan concentrations were determined by high performance liquid chromatography with tandem mass spectrometric detection (LC/MS/MS) after protein precipitation with acidified acetonitrile containing internal standard. Separations were performed with a Flux Rheos 2000 quaternary pump (Leap Technologies, Inc., Carrboro, N.C.) using an XTerra® MS C18, 3.5 μm, 4.6×50 mm column (Waters Corporation, Milford, Mass.). […]

[4] = tested on: L5 SNL rats; experiment: L5 SNL model of neuropathic pain, tactile allodynia (von Frey); type: in vivo, rat
Method: Protocol. […] Neurosci. Methods 144:175-181. The test animals were placed in a Plexiglas chamber (10 cm×20 cm×25 cm) and habituated for 15 minutes. The chamber was positioned on top of a mesh screen so that von Frey monofilaments could be presented to the plantar surface of both hindpaws. Measurement of tactile sensitivity for each hind paw were obtained using the up/down method (Dixon, 1980, Annu Rev. Pharmacol. […] Each trial started with a von Frey force of 2 grams delivered to the right hind paw for approximately 1-2 seconds and then the left hind paw. If there was no withdrawal response, the next higher force was delivered. If there was a response, the next lower force was delivered. This procedure was performed until no response was made at the highest force (15 grams) or until four stimuli were administered following the initial response. The 50% paw withdrawal threshold for each paw was calculated using the following formula: […] Testing for tactile sensitivity was performed twice and the mean 50% withdrawal value assigned as the tactile sensitivity for the right and left paws for each animal. All test groups contained at least six animals. Protocol. […] In the experiment, animals were tested for tactile allodynia at 30 min post treatment. The sham-operated control group, which were operated on but not subject to nerve ligation, contained 4 animals. The treatment group contained at least six animals. Protocol. […] All test groups contained at least six animals. Protocol. […] The data obtained are depicted in FIG. 11.

[5] = tested on: Male Sprague-Dawley rats; experiment: Rat hot plate model of acute nociceptive pain; type: in vivo; details: 30 and 60 mg/kg IP, 50° C. hot plate (FIGS. 6A, 6B)
Method: Protocol. […] For the experiment, rats were acclimated to a 50° C. hot plate apparatus by gently placing them on the hot plate with all four paws on the surface. A timer was started and the latency (in seconds) until the rat licked any of its paws was measured. A 60 second cut-off to elicit a response was set to prevent tissue damage to the paws. After the rats elicited the paw lick response, they were removed from the apparatus and returned to their home cages for at least 30 minutes. Baseline paw lick latencies were determined prior to drug treatments in an identical manner to the acclimation test. Following drug treatments, the rats were placed on the hot plate apparatus at the appropriate time and treatment paw lick latencies were determined. All test groups contained at least six animals.

[6] = tested on: FCA-treated rats; experiment: FCA-induced mechanical hyperalgesia (inflammatory pain); type: in vivo, rat
Method: Protocol. […] For the assay, the methods of DeHaven-Hudkins et al., 1999, J. Pharmacol. Exp. Ther. 289:494-502 were used to determine mechanical hyperalgesia in rats 24 hours after intraplantar administration of 150 μL Freund's Complete Adjuvant (FCA). To determine paw pressure thresholds, the rats were lightly restrained in a gauze wrap and pressure was applied to the dorsal surface of the inflamed and uninflamed paw with a conical piston using a pressure analgesia apparatus (Stoelting Instruments, Wood Dale, Ill.). […] Paw pressure thresholds were determined before and at specified times after drug treatment. All test groups contained at least six animals. Protocol. A sample of (±)-beloxepin was prepared by milling the isolated (+)-beloxepin and (−)-beloxepin enantiomers together, bringing them up in solvent, and then removing the solvent (“Lot 9”). In this experiment, 30 mg/kg of (±)-beloxepin (“Lot 7”) or 30 mg/kg of the reconstituted racemic mixture (Lot 9) was administered in rats treated with FCA for 24 hours. Thirty minutes after treatment with vehicle, (±)-beloxepin, or reconstituted racemic mixture, paw pressure thresholds were determined. Thirty minutes is the time of peak mechanical antihyperalgesia of (±)-beloxepin.

[7] = tested on: male ICR mice; experiment: Acetic acid-induced writhing (visceral pain); type: in vivo, mouse
Method: Protocol. […] Five minutes after treatment with acetic acid, the number of writhes was counted for 10 min. A writhe is defined as the extension of both front and hind limbs with a concave stretch of the abdomen. The mean number of writhes was determined for each treatment group and the percent inhibition of the vehicle response was calculated using the following formula: […]

[8] = tested on: rat hindpaw incisional model; experiment: Rat hindpaw incisional pain model, tactile allodynia; type: in vivo; details: for antiallodynic effect over time: tested 30, 60, 120, 240 minutes
Method: Protocol. A time course experiment was performed with beloxepin in the hindpaw incision model. […] Protocol. […] Protocol.

[9] = tested on: L5 SNL rats; experiment: L5 SNL model of neuropathic pain, tactile allodynia (von Frey); type: in vivo, rat; details: for antiallodynic effect over time, oral: 60 mg/kg PO
[10] = tested on: noradrenaline reuptake; details: synaptosomes from rat and primate brain; cited from earlier work
[11] = tested on: noradrenergic, histaminergic and cholinergic receptors; details: published report; cited from earlier work
[12] = target: T2, 5HT2C receptor (Homo sapiens, UniProt P28335); details: published report; cited from earlier work
T2 sequence (P28335 33-458): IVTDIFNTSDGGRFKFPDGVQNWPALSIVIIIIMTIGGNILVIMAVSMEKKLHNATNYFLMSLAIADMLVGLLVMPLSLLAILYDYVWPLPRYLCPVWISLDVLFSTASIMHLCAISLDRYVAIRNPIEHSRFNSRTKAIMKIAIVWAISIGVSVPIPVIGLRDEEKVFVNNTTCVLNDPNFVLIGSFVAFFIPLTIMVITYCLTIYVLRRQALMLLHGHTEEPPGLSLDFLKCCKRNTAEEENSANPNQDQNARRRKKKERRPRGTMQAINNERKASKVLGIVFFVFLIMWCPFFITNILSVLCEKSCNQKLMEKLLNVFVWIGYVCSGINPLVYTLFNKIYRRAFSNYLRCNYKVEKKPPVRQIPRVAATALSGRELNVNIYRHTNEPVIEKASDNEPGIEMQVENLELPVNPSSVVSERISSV

[13] = single dose, 10 to 500 mg; cited from earlier work
[14] = cited from earlier work
[15] = tested on: patients hospitalized for depression; details: phase IIA; cited from earlier work
[16] = tested on: major depression; details: subsequent clinical trials; cited from earlier work
[17] = tested on: animal models of depression; details: preclinical models of depression; cited from earlier work
[18] = tested on: human volunteers; details: 25-400 mg, cited from earlier work

T1 sequence (P10635 whole entry): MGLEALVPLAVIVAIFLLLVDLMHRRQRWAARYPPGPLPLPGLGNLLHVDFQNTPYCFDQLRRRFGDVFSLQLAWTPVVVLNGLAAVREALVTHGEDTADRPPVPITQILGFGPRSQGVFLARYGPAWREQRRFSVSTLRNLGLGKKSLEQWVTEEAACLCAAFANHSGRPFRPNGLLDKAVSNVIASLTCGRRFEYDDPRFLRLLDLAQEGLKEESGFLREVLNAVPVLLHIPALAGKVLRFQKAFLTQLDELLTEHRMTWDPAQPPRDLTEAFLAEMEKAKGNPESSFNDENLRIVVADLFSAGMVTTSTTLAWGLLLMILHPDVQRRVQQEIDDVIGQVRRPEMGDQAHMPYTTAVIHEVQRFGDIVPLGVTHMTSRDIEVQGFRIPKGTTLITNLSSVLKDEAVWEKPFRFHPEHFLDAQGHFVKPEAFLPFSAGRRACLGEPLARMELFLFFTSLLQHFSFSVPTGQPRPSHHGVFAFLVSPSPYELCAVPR

Question: With `Fc1ccc([C@@H]2CCNC[C@H]2COc2ccc3c(c2)OCO3)cc1` [paroxetine] as the compound, how does the “reduction in pain intensity” value [1] read?
Answer: 26%

Question: With `CNCCCC12CCC(c3ccccc31)c1ccccc12` [maprotiline] as the compound, how does the “reduction in pain intensity” value [1] read?
Answer: 45%

Question: With `Cc1cccc2c1Oc1ccccc1C1(O)CCN(C)CC21` (racemic) [beloxepin, cis-1,2,3,4,4a,13b-hexahydro-2,10-dimethyldiben-[2,3:6,7]oxepino[4,5c]pyridine-4a-ol]] as the compound, how does the pIC50 ([2]; human recombinant CYP2D6 microsomes, read-out: CYP2D6 IC50 (initial screening, MAMC substrate)) read?
Answer: 6.27

Question: What about the inhibition at 10 µM ([2]; human, probe 7-methoxy-4-(aminomethyl)-coumarin (MAMC)) of the same compound?
Answer: 97%

Question: What about the pIC50 [3] of the same compound?
Answer: 4.50

Question: And the “side effects following treatment” value ([4]; 30 mg/kg IP, L5 SNL rats)?
Answer: No side effects were observed

Question: And the “antiallodynic efficacy compared with duloxetine” value ([4]; each 30 mg/kg IP (FIG. 11))?
Answer: comparable in efficacy to duloxetine

Question: And the “peak antiallodynic effect compared with esreboxetine” value ([4]; each 30 mg/kg IP (FIG. 11))?
Answer: greater than that measured in rats treated with esreboxetine

Question: And the “anti-nociceptive activity (paw lick latency)” value [5]?
Answer: nearly as effective as 3 mg/kg morphine; also recorded: almost equivalent to that of 3 mg/kg morphine

Question: And the “reversal of FCA-induced hyperalgesia” value ([6]; 30 mg/kg (FIG. 7))?
Answer: nearly completely reversed hyperalgesia; also recorded: nearly complete reversal of hyperalgesia

Question: And the mechanical antihyperalgesic efficacy ([6]; 30 mg/kg IP, 24 hours after FCA, 30 min after treatment (FIG. 9))?
Answer: 96±16%

Question: And the ED50 ([7]; Mus musculus, oral, 25 min prior to 0.6% acetic acid IP (FIG. 8), read-out: ED50 inhibition of acetic acid-induced writhing)?
Answer: 13.3 mg/kg

Question: What about the “inhibition of acetic acid-induced writhing, dose dependence” value ([7]; oral (FIG. 8)) of the same compound?
Answer: dose-dependent fashion

Question: And the “maximum hindpaw withdrawal threshold” value ([8]; 3 mg/kg IV, 24 hours post-surgery, 30 minute time point (FIG. 14))?
Answer: ~21 grams

Question: And the “antiallodynic effect over time” value ([8]; 3 mg/kg IV)?
Answer: significant antiallodynic effect at the 30 and 120 minute time points

Question: And the “maximum threshold, % of the threshold value for vehicle treated rats” value ([8]; 30 mg/kg IP, 30 minute time point (FIG. 12))?
Answer: 544%

Question: What about the “maximum hindpaw withdrawal threshold” value ([8]; 30 mg/kg IP, 24 hours post surgery, 30 minute time point (FIG. 12)) of the same compound?
Answer: ~29 grams

Question: And the “antiallodynic effect over time” value ([8]; 30 mg/kg IP)?
Answer: significant antiallodynic effect at all four time points

Question: And the “maximum hindpaw withdrawal threshold” value ([8]; 60 mg/kg PO, 24 hours post-surgery, 30 and 60 minute time points (FIG. 13))?
Answer: ~24 grams

Question: And the “antiallodynic effect over time” value ([8]; 60 mg/kg PO)?
Answer: significant antiallodynic effect at all four time points

Question: What about the “3 mg/kg IV dose lower than a dose that produced a significant respiratory or cardiovascular side effect” value ([8]; IV, rats) of the same compound?
Answer: 10 fold

Question: What about the “tactile antiallodynic effect, % of that observed with sham-operated animals” value ([9]; 30 mg/kg IP (FIG. 2)) of the same compound?
Answer: ~100%

Question: What about the observed mean threshold ([9]; 30 mg/kg IP (FIG. 3)) of the same compound?
Answer: approximately 15 g

Question: What about the “maximal antiallodynic effect, % of the threshold of vehicle-treated rats” value ([9]; 30 mg/kg IP, 14 days post surgery, 30 min post treatment (FIG. 1)) of the same compound?
Answer: 829%

Question: What about the “antiallodynic effect over time” value ([9]; 30 mg/kg IP, 14 days post surgery, tested 30, 60, 120, 240 min) of the same compound?
Answer: significant antiallodynia effects at the 30, 60 and 120 min time points

Question: What about the “antiallodynic effect, % of the threshold for vehicle-treated rats” value ([9]; 30 mg/kg IP, 16 days post surgery, 30 min post treatment (FIG. 2)) of the same compound?
Answer: 852%

Question: What about the “antiallodynic effect over time, oral” value ([9]; 7 days post surgery, tested 30, 60, 120, 240 min (FIG. 10)) of the same compound?
Answer: significant antiallodynic effects at all four time points

Question: And the “antiallodynic effect over time, oral” value ([9]; 8 days post surgery, tested 30, 60, 120, 240 min (FIG. 4))?
Answer: significant and robust antiallodynic effects at the 30 and 60 min time points

Question: What about the “antiallodynic effect compared with duloxetine, amitriptyline, reboxetine” value ([9]; each 30 mg/kg IP (FIG. 5)) of the same compound?
Answer: the most effective of the compounds tested

Question: What about the “affinity for other monoamine carriers (serotonin and dopamine transporters) less than for noradrenaline reuptake” value [10] of the same compound?
Answer: greater than 100 fold

Question: What about the “affinity for noradrenergic, histaminergic and cholinergic receptors” value [11] of the same compound?
Answer: no or very weak affinity

Question: What about the “affinity for the 5HT2C receptor” value [12] of the same compound?
Answer: modest affinity

Question: And the t1/2 [13]?
Answer: 11 to 15 h

Question: What about the tmax [13] of the same compound?
Answer: one to four

Question: And the “t1/2, steady state” value ([14]; healthy normal subjects, 50 to 800 mg)?
Answer: 12 to 14 h

Question: And the “adverse effects in healthy volunteers” value ([14]; up to 800 mg/day)?
Answer: No important adverse effects were observed

Question: And the “fraction of patients with a moderate to good response (HAMD score reduction)” value [15]?
Answer: ⅔

Question: What about the “efficacy for the treatment of major depression” value [16] of the same compound?
Answer: insufficient efficacy

Question: And the “sedation, motor impairment, side effects in animal tests” value [17]?
Answer: did not cause sedation, motor impairment or other untoward side effects

Question: And the “total duration of nocturnal REM sleep” value ([18]; EEG)?
Answer: decreased total duration of nocturnal REM sleep

Question: What about the REM latency ([18]; acutely and sub-chronically, EEG) of the same compound?
Answer: dose-dependently prolonged REM latency

Question: What about the “sedation or other side effects in sleep studies” value ([18]; human volunteers) of the same compound?
Answer: No sedation or other side effects were observed

Source: patent US7829576B2 (priority 2008, dated 2010)
